From patent publication US20210309961A1, “METHOD OF THREE-DIMENSIONAL MICROORGANISMS BIOFILMS FABRICATION” (VIVAX BIO, LLC, priority 2020, published 2021)

Tested on: E. coli ATCC 43890
Experiment: Survivability of E. coli ATCC 43890 in presence of gadobutrol (cfu count by plating decimal dilutions)
Type: cell-based, Escherichia coli
Protocol: A. (1) E. coli culture ATCC 43890 grown on LB broth during the night, (2) bacteria culture grown on LB broth and incubated with 0,2 M of gadobutrol in magnetic bioprinter for 24 hours, and (3) bacteria culture cultivated in paramagnetic substrate containing 0,2 M of gadobutrol in magnetic bioprinter for 24 hours; bacteria were sown in decimal dilution; diagram is showing concentrations calculated in three independent experiments.
The E. coli ATCC 43890 (cultured in different conditions) concentrations were estimated for analysis of survivability of bacteria in presence of gadobutrol. Primary culture has shown concentrations of 2.3×10^9, 2.1×10^9 and 1.9×10^8 cfu/ml for fresh night culture grown in LB broth during the night (1), for culture grown in LB broth during the night and then incubated with 0.2M gadobutrol in the bioprinter for next 24 hours (2), and culture grown under magnetic levitation in the paramagnetic nutrient medium (3) respectively (FIG. 4A). […] Moreover, the results have shown that the bacteria proliferated in the paramagnetic culture medium, that was observed due to the increase in concentration during cultivation: the initial bacteria (diluted in fresh paramagnetic medium) concentration was 2.3×10^7 cfu/ml ( 1/100 from the fresh night culture) and final concentration was 1.9×10^8 cfu/ml.

Compound: O=C([O-])CN1CCN(CC(=O)[O-])CCN(C(CO)C(O)CO)CCN(CC(=O)[O-])CC1.[Gd+3] (stereo not drawn) [gadobutrol, [10-[2,3-dihydroxy-1-(hydroxymethyl)propyl]-1,4,7,10-tetraazacyclododecane-1,4,7-triaceto(3-)-N^1,N^4,N^7,N^10,O^1,O^4,O^7]gadolinium]
- survivability of bacteria after incubation (0.2M gadobutrol): bacteria saved their survivability
- bacteria concentration (culture grown in LB broth during the night, then incubated with 0.2M gadobutrol in the bioprinter for next 24 hours): 2.1×10^9 cfu/ml
- bacteria concentration (culture grown under magnetic levitation in paramagnetic nutrient medium (0.2 M gadobutrol) for 24 hours, initial concentration 2.3×10^7 cfu/ml): 1.9×10^8 cfu/ml
